{"source": "ChEMBL document CHEMBL5634083", "about": "“Targeting polyketide synthase 13 for the treatment of tuberculosis” (Eur J Med Chem, 2023)", "assay_type_in_all_cases": "functional", "key": {"[1]": {"tested_on": "Mycobacterium tuberculosis", "experiment": "Antimycobacterial activity against multi-drug resistant Mycobacterium tuberculosis"}, "[2]": {"tested_on": "Mycobacterium tuberculosis", "experiment": "Antibacterial activity against fluoroquinolone-resistant Mycobacterium tuberculosis H37Rv assessed as reduction in bacterial growth measured after 16 to 18 hrs by serial dilution method", "settings": "time 16-18 hrs"}, "[3]": {"tested_on": "Mycobacterium tuberculosis", "experiment": "Antitubercular activity against multi-drug resistant Mycobacterium tuberculosis assessed as reduction in microbial growth measured after 3 weeks by resazurin microplate reader assay", "settings": "504 h"}}}
{"smiles": "CCOC(=O)c1c(NC(=O)c2c(F)c(F)c(F)c(F)c2F)sc2c1CCN(CC)C2", "values": [{"measurement": "MIC", "setting": "[1]", "result": 0.2, "unit": "µM"}]}
{"smiles": "CC(=O)c1c(C)n(-c2ccc(N(C)C)cc2)c2ccc(O)c(CN3CCCC3)c12", "values": [{"measurement": "MIC90", "setting": "[2]", "result": 0.244, "unit": "µM"}]}
{"smiles": "O=C(c1ccccc1)c1cc(Cl)ccc1OCc1nc(-c2ccc(C(F)(F)F)cc2)no1", "values": [{"measurement": "MIC", "setting": "[3]", "result": 16, "unit": "mg/L"}]}
